Test results taken from ChEMBL document CHEMBL1134487, “Design, synthesis, and biological evaluation of analogues of the antitumor agent, 2-(4-[(7-chloro-2-quinoxalinyl)oxy]phenoxy)propionic acid (XK469)” (2001).
Activity calls are given as the source filed them. The calls are words filed in the database; no cut-off is given here.

Legend:
Mus musculus [1] = assay: In vivo activity against transplanted Mam-16/C/ Taxol tumors of mice; Not active; type: functional, organism-based
Mus musculus [2] = assay: In vivo activity against iv transplanted AML Leukemia 1498 tumors of mice; type: functional, organism-based
Mus musculus [3] = assay: In vivo activity against iv transplanted Leukemia L1210 tumors of mice; type: functional, organism-based
Mus musculus [4] = assay: In vivo activity against transplanted Mam-16/C tumors of mice; type: functional, organism-based
Mus musculus [5] = assay: In vivo activity against transplanted Mam-16/C/Adr tumors of mice; type: functional, organism-based
Mus musculus [6] = assay: In vivo activity against transplanted Mam-17/Adr tumors of mice; type: functional, organism-based
Mus musculus [7] = assay: In vivo activity against transplanted Panc-02 tumors of mice; type: functional, organism-based
Mus musculus [8] = assay: In vivo activity against transplanted Panc-03 tumors of mice; type: functional, organism-based
Mus musculus [9] = assay: In vivo activity against transplanted Squam lung-LC12 tumors of mice; type: functional, organism-based
Mus musculus [10] = assay: In vivo activity against transplanted colon-26 tumors of mice; type: functional, organism-based
Mus musculus [11] = assay: In vivo activity against transplanted colon-38 tumors of mice; type: functional, organism-based
Mus musculus [12] = assay: In vivo activity against transplanted colon-51 tumors of mice; type: functional, organism-based
Mus musculus [13] = assay: In vivo activity against transplanted Mel-B16 tumors of mice; type: functional, organism-based
Mus musculus [14] = assay: In vivo activity against transplanted Mam-17 tumors of mice; type: functional, organism-based
Mus musculus [15] = assay: In vivo activity against iv transplanted AML Leukemia 1498 tumors of mice; Not active; type: functional, organism-based
Mus musculus [16] = assay: In vivo activity against transplanted Mam-16/C/Adr tumors of mice; Not active; type: functional, organism-based
Mus musculus [17] = assay: In vivo activity against transplanted Mam-16/C/ Taxol tumors of mice; type: functional, organism-based
Mus musculus [18] = assay: In vivo antitumor activity against tumor […]; Inactive; type: functional, organism-based
Mus musculus [19] = assay: In vivo activity tested against C3H mice bearing panc-03 murine tumor at a dose of 330mg/kg, measured as % treated/control; type: functional
Mus musculus [20] = assay: In vivo activity tested against C3H mice bearing panc-03 murine tumor at a dose of 330mg/kg, measured as activity rating; type: functional
Mus musculus [21] = assay: In vivo activity against C3H mice bearing panc-03 murine tumor; Inactive; type: functional, organism-based
Mus musculus [22] = species on record: Mus musculus; assay: […] activity against C3H mice bearing panc-03 murine tumor; Inactive; type: functional, organism-based
Mus musculus [23] = assay: In vivo activity tested against C3H mice bearing mammary adenocarcinoma -17/ADR tumor measured as body weight loss at 301 mg/kg (po); type: functional
Mus musculus [24] = assay: In vivo activity tested against C3H mice bearing mammary adenocarcinoma -17/ADR tumor measured as % treated/control calculated at 301 mg/kg (po); type: functional
Mus musculus [25] = assay: In vivo activity tested against C3H mice bearing mammary adenocarcinoma -17/ADR tumor measured as activity rating at 301 mg/kg (po); type: functional
Mus musculus [26] = assay: In vivo activity tested against C3H mice bearing mammary adenocarcinoma -17/ADR tumor measured as log Kill value was based on tumors that grew at 301 mg/kg (po); type: functional, organism-based; parameters: dose 301 mg/kg
Mus musculus [27] = assay: In vivo activity against transplanted Mam-16/C/Taxol tumors of mice; type: functional, organism-based
Mus musculus [28] = assay: In vivo activity against iv transplanted Leukemia L1210 tumors of mice; Not active; type: functional, organism-based
Mus musculus [29] = assay: In vivo activity against transplanted Mam-17 tumors of mice; Not active; type: functional, organism-based
Mus musculus [30] = assay: In vivo activity against transplanted Mam-17/Adr tumors of mice; Not active; type: functional, organism-based
Mus musculus [31] = assay: In vivo activity against transplanted colon-26 tumors of mice; Not active; type: functional, organism-based

Compound	Log kill (Mus musculus [3])	Log kill (Mus musculus [4])	Log kill (Mus musculus [5])	Log kill (Mus musculus [6])	Log kill (Mus musculus [7])	Log kill (Mus musculus [8])	Log kill (Mus musculus [9])	Log kill (Mus musculus [10])	Log kill (Mus musculus [11])	Log kill (Mus musculus [12])	Log kill (Mus musculus [13])	Log kill (Mus musculus [14])	also measured
O=c1[nH]cc(F)c(=O)[nH]1	4.9	2.8	2.8	< 0.7	< 0.7	1.2	< 0.7	1.9	2.8	< 0.7	1.9	1.2	NA (Mus musculus [1]): inactive; Log kill (Mus musculus [2]): 1.2
CISPLATIN	2.9	1.2	1.2	> 2.8	< 0.7	1.9	> 2.8	1.9	0.7	1.9	1.9	2.8	NA (Mus musculus [15]): inactive; NA (Mus musculus [1]): inactive
Nc1ccn([C@@H]2O[C@H](CO)[C@@H](O)[C@@H]2O)c(=O)n1	> 5	1.9		2.8	< 0.7	< 0.7	< 0.7	< 0.7	1.9	< 0.7	< 0.7	1.9	NA (Mus musculus [1]): inactive; NA (Mus musculus [16]): inactive; Log kill (Mus musculus [2]): > 2.8
CC[C@]1(O)C[C@@H]2CN(CCc3c([nH]c4ccccc34)[C@@](C(=O)OC)(c3cc4c(cc3OC)N(C)[C@H]3[C@@](O)(C(=O)OC)[C@H](OC(C)=O)[C@]5(CC)C=CCN6CC[C@]43[C@@H]65)C2)C1	1.9	1.9	< 0.7	< 0.7	< 0.7	< 0.7	< 0.7	< 0.7	2.8	< 0.7	< 0.7	< 0.7	Log kill (Mus musculus [2]): < 0.7; Log kill (Mus musculus [17]): < 0.7
O=P1(N(CCCl)CCCl)NCCCO1 (stereo not drawn)	4.9	2.8	> 2.8	2.8	< 0.7	1.9	> 2.8	1.9	0.7	1.9	1.9	2.8	NA (Mus musculus [1]): inactive; Log kill (Mus musculus [2]): > 2.8
CC(Oc1ccc(Sc2cnc3ccc(Cl)cc3n2)cc1)C(=O)O (stereo not drawn)													NA (Mus musculus [18]): inactive
CC(Oc1cccc(Oc2cnc3ccc(Cl)cc3n2)c1)C(=O)O (stereo not drawn)													T/C (Mus musculus [19]): 100%; Activity rating (Mus musculus [20]): <0.7
O=NN(CCCl)C(=O)NCCCl	> 5	< 0.7	0.7	< 0.7	< 0.7	< 0.7	1.2	> 2.8	< 0.7	1.9	> 2.8	< 0.7	NA (Mus musculus [15]): inactive; NA (Mus musculus [1]): inactive
CC(Oc1cnc2ccc(Cl)cc2n1)C(=O)O (stereo not drawn)													NA (Mus musculus [18]): inactive
CC(Oc1ccc(-c2ccc(Oc3cnc4ccc(Cl)cc4n3)cc2)cc1)C(=O)O (stereo not drawn)													NA (Mus musculus [18]): inactive
CC(=O)O[C@H]1C(=O)[C@@]2(C)[C@H]([C@H](OC(=O)c3ccccc3)[C@]3(O)C[C@H](OC(=O)[C@H](O)[C@@H](NC(=O)c4ccccc4)c4ccccc4)C(C)=C1C3(C)C)[C@]1(OC(C)=O)CO[C@@H]1C[C@@H]2O	< 1	> 2.8	< 0.7	< 0.7	< 0.7	> 2.8	< 0.7	0.7	> 2.8	1.2	0.7	> 2.8	Log kill (Mus musculus [2]): < 0.7; Log kill (Mus musculus [17]): < 0.7
CC(Oc1ccccc1Oc1cnc2ccc(Cl)cc2n1)C(=O)O (stereo not drawn)													NA (Mus musculus [18]): inactive
COc1cc([C@@H]2c3cc4c(cc3[C@@H](O[C@@H]3O[C@@H]5CO[C@@H](C)O[C@H]5[C@H](O)[C@H]3O)[C@H]3COC(=O)[C@H]23)OCO4)cc(OC)c1O	> 5	2.8	< 0.7	< 0.7	< 0.7	1.9	> 2.8	< 0.7	1.9	0.7	< 0.7	1.9	NA (Mus musculus [15]): inactive; Log kill (Mus musculus [17]): 1.2
CC(Oc1ccc(Oc2cnc3ccc(Cl)cc3n2)cc1)C(=O)NO (stereo not drawn)													NA (Mus musculus [21]): inactive
CC(C#N)Oc1ccc(Oc2cnc3ccc(Cl)cc3n2)cc1 (stereo not drawn)													NA (Mus musculus [22]): inactive
C[C@H](Oc1ccc(Oc2cnc3ccc(Cl)cc3n2)cc1)C(=O)O													Body weight loss (Mus musculus [23]): -3%; T/C (Mus musculus [24]): 0%; Activity rating (Mus musculus [25]): >2.8; Log kill (Mus musculus [26]): 2.7
CC(Oc1ccc(Oc2cnc3ccc(N)cc3n2)cc1)C(=O)O (stereo not drawn)													NA (Mus musculus [22]): inactive
COc1cccc2c1C(=O)c1c(O)c3c(c(O)c1C2=O)C[C@@](O)(C(=O)CO)C[C@@H]3O[C@H]1C[C@H](N)[C@H](O)[C@H](C)O1	1.9	> 2.8	0.7	< 0.7	< 0.7	2.8	> 2.8	0.7	1.9	0.7	0.7	> 2.8	Log kill (Mus musculus [2]): > 2.8; Log kill (Mus musculus [27]): 2.8
C[C@@H](Oc1ccc(Oc2cnc3ccc(Cl)cc3n2)cc1)C(=O)O [R(+)XK469]													Body weight loss (Mus musculus [23]): -8%; T/C (Mus musculus [24]): 2%; Activity rating (Mus musculus [25]): >2.8; Log kill (Mus musculus [26]): 2.9
CC(Oc1ccc(Nc2cnc3ccc(Cl)cc3n2)cc1)C(=O)O (stereo not drawn)													NA (Mus musculus [18]): inactive
CC[C@@]1(O)C(=O)OCc2c1cc1n(c2=O)Cc2cc3ccccc3nc2-1		2.8			< 0.7	> 2.8	< 0.7		1.2	1.2	1.2		NA (Mus musculus [15]): inactive; NA (Mus musculus [28]): inactive; NA (Mus musculus [1]): inactive; NA (Mus musculus [16]): inactive; NA (Mus musculus [29]): inactive; NA (Mus musculus [30]): inactive; NA (Mus musculus [31]): inactive
